Data set [1] can be described thus: In vivo PK study, plasma HPLC MS/MS. To be noted: mice. Further details: species or system mouse. Here is the method:
Pharmacokinetics of the Leads in Rodents. A method to quantify IPR-69 in plasma was developed using HPLC-MS/MS (API 3200; Applied Biosystems). A 20 μL plasma sample was extracted with methyl tertiary butyl ether (MTBE) under neutral conditions (0.1 M phosphate buffer pH=7.4) using temazepam as the internal standard. The extract is evaporated, reconstituted with mobile phase and injected into the HPLC. The HPLC column is a C-8 50×4.6 mm 5-μm column and separation of UPR and temazepam occurred by a linear gradient mobile phase starting with acetonitrile:0.1% formic acid (10:90) and changing to 80:20. The m/z Q1 and Q3 settings on the API 3200 for UPR and temazepam are 418/297 and 301/255, respectively. The lower limit of quantification of IPR-69 is 1 ng/mL using 20 μL of plasma. A standard response curve of IPR-69 was created with concentrations that varied from 1 ng/mL to 1000 ng/mL using 300 ng/mL of temazepam for each sample. To determine drug concentrations of the lead inhibitors in the pharmacological models, the PK properties of the compounds in mice must be characterized. The PK of IPR-69 was determined in NOD/SCID mice following a single dose given PO. The study design used 3 mice per time point. Blood was collected at time intervals from 0 to 24 hours after dosing (8 time points), quantified by the procedure described above. Pharmacokinetic parameters for IPR-69 including area under the curve (AUC), area under the moment curve (AUMC), and t1/2 were estimated using non-compartmental methods with Excel®. The maximum plasma concentration (Cmax) and time of Cmax (tmax) were obtained from the data. The AUC from zero to infinity (AUC0-∞) was estimated from the AUC0-t (time zero to the last quantifiable concentration Clast) and the AUC from Clast to infinity, Clast/kel, where kel is the rate constant of elimination. The AUMC0-∞ was estimated by an analogous manner. The systemic clearance (Cl/F, where F=bioavailability) of IPR-69 was calculated from the dose and AUC0-∞. […]

The subject of another data set is MMP-9. Kind of data set: Gelatin zymography of MDA-MB-231 conditioned medium. In kind it is cell-based, human. As to the method:
Gelatin Zymography. MDA-MB-231 cells were treated with different concentrations of uPAR compounds in serum free medium for 24 h, the conditioned medium were collected, concentrated by Amicon Ultra centrifugal filter units (Millipore, #UFC500324), proteins were normalized and electrophoresed on sodium dodecyl sulfate (SDS)-polyacrylamide gels (10%) containing 1 mg/mL gelatin. After electrophoresis, the gel was washed twice in 50 mM Tris-HCl (pH 7.6) containing 5 mM CaCl2 and 2.5% Triton X-100 for 30 minutes at room temperature and incubated in buffer that contained 50 mM Tris-HCl (pH 7.6), 200 mM NaCl, 10 mM CaCl2 at 37° C. for 36 h. Then, the gels were stained with 0.05% Coomassie brilliant blue (CBB) and destained with 30% methanol in 10% acetic acid. Areas of gelatinolytic degradation appeared as transparent bands on the blue stained background of the gel. Data were quantified using Image J.
To degrade collagen within the ECM, malignant cells unleash a series of extracelullar proteases known as matrix metalloproteinases (MMPs).

Data set [2] concerns MDA-MB-231 cells. Kind of data set: Migration assay (Boyden chamber without Matrigel). In kind it is cell-based. To be noted: Homo sapiens.
Protocol: Invasion and Migration Assays. These assays were performed using BD BioCoat Matrigel Invasion Chamber (Cat. 354480, BD Biosciences, Bedford, Mass.). The undersurface of the inserts was coated with 30 μg/mL of fibronectin (Sigma, F2006) in PBS at 4° C. overnight. The inserts were washed with PBS once. Then, 0.5 mL of serum-free medium was separately added to the upper and lower chambers to equilibrate the Matrigel invasion chambers at 37° C., 5% CO2 for 2 hours. After starvated with serumfree DMEM or 4 hours, subconfluent MDA-MB-231 cells were trypsinized and resuspended in 0.1% FBS DMEM. 5×10^4 cells in 500 μL of 0.1% FBS DMEM containing various compounds or 1.0% DMSO (as control) were added to the upper chambers. […] We incubated the invasion chambers for 3 hours at 37° C., 5% CO2. Non-invaded cells were removed from the upper chamber with a cotton swab. The invaded cells were fixed with 100% methanol and then stained with Hematoxylin Stain Harris Modified Method (Fisher, SH30-500D). The filters were washed with water 3 times. Filters were air dried and the invaded cells were counted in ten randomly selected microscopic fields (×200 magnification). The experiment was performed in triplicate per group and shown by mean±SE.
Data set [3] deals with different signaling molecules. The data set can be described thus: Western blot analysis of signaling. Format: cell-based. To be noted: n=1. Here is the method:
In light of the previously reported role of uPAR in signaling, the effect of IPR-993, IPR-737, IPR-81 and IPR-69 on signaling was studied by Western blot analysis (FIG. 23). A concentration-dependent study was carried out for IPR-737.
On the technique in general: Immunoblotting shows a protein as a band on a membrane.

For a further data set, the system named is TMD-231 cells. Kind of data set: TMD-231 mammary fat pad xenograft, tumor growth and lung metastasis. Format: in vivo. The text has this:
Mouse Xenograft Studies. NOD/SCID mice were obtained from the on-site breeding colony maintained by the In Vivo Therapeutics Core at the Indiana University Simon Cancer Center (IUSM, Indianapolis, Ind.) and maintained in pathogen-free conditions within the laboratory animal resources center (LARC) at the Indiana University School of Medicine according to an approved protocol by the Institutional animal care and use committee (IACUC) committee.
For metastasis studies, m.f.p. tumors were allowed to grow to approximately 100 mm^3 mice. Mice were assigned to treatment group based on average tumor size/weight. Following a recovery period of two days, mice received treatment of investigational drug (n=15) or a PBS solvent control (n=15). After four weeks mice were euthanized, the lungs were resected, fixed in formalin solution, sectioned, and stained with hematoxylin and eosin (H&E) for analysis. […] Tumor volume were be calculated as Length*Width^2/2 in millimeters.
TMD-231 cells were inoculated into the mammary fat pad of female NOD/SCID mice. Dosing was initiated at day 18 post implantation. Animals were randomized and treated with vehicle or with IPR-69 by daily oral gavage at a dose of 150 mg/kg (n=11). Tumor volumes were determined by caliper measurements on a […], and calculated according to the formula (α2×β)/2, where α is the shorter and β is the longer of the two dimensions. Tumor volumes were determined by caliper measurements on a weekly basis. The study was conducted over a period of 68 days. […] Once the tumor volume reached 30 mm^3 to 50 mm^3, animals were randomized and treated with vehicle alone as control or 150 mg/kg IPR-69 three times a week for 10 weeks by oral gavage. Tumor volumes were determined by caliper measurements obtained weekly. Over the course of the study, several mice were sacrificed to determine whether breast tumor cells had metastasized to the lungs. At the end of the study, control and experimental animals were sacrificed and organs (lungs) were removed and evaluated for the presence of tumors. The number and size of metastasis in two to five fields per sample were calculated. […] Briefly, percentage of staining was categorized as “0” if there was no nuclear/cytoplasmic expression, “1” for up to 10% positive tumor nuclei/cells, “2” for 11-20% and until a maximum score of “10”. Intensity was scored as “1+,” “2+,” and “3+” for weak, moderate and strong staining respectively.

The subject of data set [4] is MDA-MB-231 cells. Kind of data set: Adhesion assay on fibronectin-coated wells. Format: cell-based, human. The note with it: Homo sapiens; MDA-MB-231, fibronectin. As to the method:
Adhesion Assay. Quantitative cell adhesion assays were carried out in nontissue culture treated 96-well microtiter plates (Evergreen Scientific, Los Angeles, Calif.) which were coated with 15 μg/mL fibronectin (Sigma) for 1 h at room temperature. Fibronectin coated and uncoated control wells were blocked for 1 h with 3% heat denatured bovine serum albumin (BSA) at 37° C. Cells were split one day prior to the experiment to achieve a subconfluent culture. […] The wells were washed and the number of adherent cells was quantified by crystal violet staining at 570 nm.^19,20 The results were shown by means±SE.

The structures appear in SMILES notation.

The values below come from US9745288B2, “Compounds and methods for treating cancer by inhibiting the urokinase receptor” (Indiana University Research and Technology Corporation, priority 2011, dated 2017).

A word on the half-life: it is the time in which the quantity being followed falls by half. What is called IC50 is the concentration needed to halve the response being measured.

On to `Cc1cc(C)cc(NC(=O)c2cnn(-c3ccc(C(C)C)cc3)c2C2CCNCC2)c1` [IPR-69, N-(3,5-dimethylphenyl)-1-(4-isopropylphenyl)-5-(piperidin-4-yl)-1H-pyrazole-4-carboxamide], for which the half-life in data set [1] (NOD/SCID, mouse, plasma, estimated, single oral gavage of 50 mg/kg) is approximately 2 h. In data set [1], the “oral bioavailability” value is on record as “orally bioavailable”. The “time of maximum level” value in data set [1] (single oral gavage of 50 mg/kg) is given as “approximately 5 hours”. In addition, in the data set with MMP-9, the “MMP-9 activity in gelatin zymography” value is “some inhibition of MMP-9”. Moreover, the 50% inhibitory concentration (IC50) in the data set on MMP-9 (estimated, read-out: IC50 for inhibition of MMP-9 activity) was 25 µM; with MDA-MB-231 cells [2] it was 40 µM; in the data set with MDA-MB-231 cells [4] it was 45 µM. In addition, the “effect on signaling molecules” value in data set [3] was “did not seem to be much of an effect”. For the same compound, in the data set with TMD-231 cells (150 mg/kg oral gavage), the “treated mice with metastatic lesions of score >2” value is 3. Besides, the “tumor volume at the end of the study” value in the data set on TMD-231 cells (150 mg/kg oral gavage, average, 68 days) is listed as 779 mm^3. For the same compound, the “treated mice with signs of metastatic lesions in the lungs” value in the data set on TMD-231 cells (150 mg/kg oral gavage, n=11) is reported as 3 out of 11. In addition, the “metastasis to the lungs” value with TMD-231 cells (compared with untreated mice) is recorded as “less extensive metastasis to the lungs”. Moreover, the tolerability entry with TMD-231 cells (doses as high as 150 mg/kg, mice) is recorded as “well tolerated”.
